Assay results from patent publication US12398154B2, “Azaquinazoline pan-KRas inhibitors” (Mirati Therapeutics, Inc., priority 2020, dated 2025).

Experiments:
KRas G12D = KRas G12D (Homo sapiens, UniProt P01116, G12D); experiment: biochemical;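 further: TR-FRET displacement binding assay on KRas, read after a one-hour incubation at room temperature, IC50 fitted from percent-of-control values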
Procedure: (§1) The ability of a compound to bind to KRas was measured using a TR-FRET displacement assay. […] After a 60-minute incubation at room temperature, the reaction was measured using a BMG LABTECH CLARIO star Plus via TR-FRET. […] The POC values were fit to a 4-parameter IC50 equation and the IC50 value reported.

KRas G12C = KRas G12C (Homo sapiens, UniProt P01116, G12C); experiment: biochemical;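 further: binding to KRas assessed by TR-FRET displacement after one hour incubation at room temperature, potency fitted from percent-of-control values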
Procedure: as §1

KRas G12V = KRas G12V (Homo sapiens, UniProt P01116, G12V); experiment: biochemical;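 further: KRas binding measured by TR-FRET displacement at room temperature, IC50 fitted from percent of control values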
Procedure: as §1

KRas G13D = target: T1, KRas G13D (Homo sapiens, UniProt P01116, G13D); experiment: KRas binding assay (TR-FRET displacement);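 further: One-hour room temperature incubation before TR-FRET reading, IC50 from a four-parameter curve fit to percent-of-control data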
T1 construct: Biotinylated KRas (corresponding to amino acids 1-169, produced at Accelegan Inc.); biotin (biotinylated); purchased Accelegan Inc
Procedure: as §1

KRas G12R = KRas G12R (Homo sapiens, UniProt P01116, G12R); experiment: biochemical;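 further: TR-FRET displacement assay of compound binding to KRas, read after one hour at room temperature, potency from a four-parameter fit of percent-of-control values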
Procedure: as §1

KRas WT = KRas WT (Homo sapiens, UniProt P01116); experiment: biochemical;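 further: binding to KRas read as TR-FRET displacement after a one-hour room-temperature incubation, IC50 derived from percent-of-control values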
Procedure: as §1

KRas Q61H = target: T2, KRas Q61H (Homo sapiens, UniProt P01116, Q61H); experiment: KRas binding assay (TR-FRET displacement);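 further: TR-FRET signal read after one hour at room temperature, IC50 derived by four-parameter fitting of percent-of-control values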
T2 construct: Biotinylated KRas (corresponding to amino acids 1-169, produced at Accelegan Inc.); biotin (biotinylated); purchased Accelegan Inc
Procedure: as §1

KRas G12S = KRas G12S (Homo sapiens, UniProt P01116, G12S); experiment: biochemical;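 further: TR-FRET displacement binding to KRas, read after one hour incubation at room temperature, IC50 from four-parameter fit of percent of control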
Procedure: as §1

KRas G12A = KRas G12A (Homo sapiens, UniProt P01116, G12A); experiment: biochemical;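 further: binding to KRas measured by TR-FRET displacement after one hour at room temperature, IC50 from a four-parameter fit of percent-of-control values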
Procedure: as §1

pERK in H727 cells = experiment: Inhibition of KRas phosphorylation of ERK (Cisbio HTRF pERK assay); conditions: Homo sapiens, NCI-H727, read-out: Inhibition (HTRF IC50) of KRas-mediated Phosphorylation of ERK, H727
pERK in PSN1 cells = experiment: as above; conditions: Homo sapiens, PSN1, 3 h, read-out: Inhibition (HTRF IC50) of KRas-mediated Phosphorylation of ERK, PSN1
pERK in HCT116 cells = experiment: as above; conditions: Homo sapiens, HCT-116, read-out: Inhibition (HTRF IC50) of KRas-mediated Phosphorylation of ERK, HCT116
Procedure: To harvest cells from flask using 0.05% Trypsin/EDTA solution. Add 10 mL of media to stop trypsinizing. Pipette the cells into a conical bottom 50 mL centrifuge tube and centrifuge 5 min×1000 rpm. • 2. Re-suspend the cell pellet in media, take a cell count, and then adjust the cell density using fresh media. • 3. Seed 6,000 cells into cell culture plate with 50 μL media. […] Incubate cell plate overnight in a 37° C., 5% CO2 incubator. • Compound titrations • 1. Use Tecan to complete the compound addition. Compounds start from 10 uM top, 3-fold dilution, and 10 doses. The final DMSO concentration is 0.8%. Dispensed 0.2 uM Trametinib as Min control. • 2. Incubate cell plate for 3 hrs in the incubator. • Detection with cisbio pERK HTRF kit • 1. […] At the end of the compound treatment, flick-off the media. • 3. Add 35 μL of lysis buffer per well using a Multidrop Combi. Then place on a plate agitator shaking at 300 rpm at 4° C. for 40 mins. • 4. Make up the HTRF antibody buffer. For each assay plate, mix 50 μL of d2-conjugate antibody with 950 μL of detection buffer. Similarly, mix 50 μL of Cryptate antibody with 950 μL of detection buffer. Then mix the two diluted antibodies together. • 5. Dispense 3.4 μL the antibody buffer to wells of an empty assay plate. Seal the plate and centrifuge plate 30 sec×1000 rpm. • 6. At the end of the 4° C. lysis, centrifuge the lysate plates 3 mins×1500 rpm. • 7. Use the Bravo to transfer 13.6 μL of lysate from cell culture plate to assay plate.
Then incubate assay plate for 2 hrs at room temperature. […] At the end of incubation, read plate on the Envision after centrifuging plate 30 sec× • 1000 rpm.

pERK in ASPC1 cells = experiment: as above; conditions: Homo sapiens, ASPC1, read-out: Inhibition (HTRF IC50) of KRas-mediated Phosphorylation of ERK, AsPC-1
pERK in MKN1 cells = experiment: as above; conditions: Homo sapiens, MKN-1, 3 h, read-out: Inhibition (HTRF IC50) of KRas-mediated Phosphorylation of ERK, MKN1

KRas G12A, sequence (P01116 1-169 isoform P01116-2 G12A): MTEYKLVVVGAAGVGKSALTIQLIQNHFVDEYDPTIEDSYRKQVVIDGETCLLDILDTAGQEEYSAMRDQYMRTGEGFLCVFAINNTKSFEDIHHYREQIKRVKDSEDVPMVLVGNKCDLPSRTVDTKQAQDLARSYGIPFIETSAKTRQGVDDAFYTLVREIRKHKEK
T1 sequence (P01116 1-169 isoform P01116-2 G13D): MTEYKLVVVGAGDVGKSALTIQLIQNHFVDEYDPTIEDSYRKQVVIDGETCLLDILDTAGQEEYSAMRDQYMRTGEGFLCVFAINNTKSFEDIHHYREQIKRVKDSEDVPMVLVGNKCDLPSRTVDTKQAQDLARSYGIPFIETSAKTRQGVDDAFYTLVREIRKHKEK
KRas G12V, sequence (P01116 1-169 isoform P01116-2 G12V): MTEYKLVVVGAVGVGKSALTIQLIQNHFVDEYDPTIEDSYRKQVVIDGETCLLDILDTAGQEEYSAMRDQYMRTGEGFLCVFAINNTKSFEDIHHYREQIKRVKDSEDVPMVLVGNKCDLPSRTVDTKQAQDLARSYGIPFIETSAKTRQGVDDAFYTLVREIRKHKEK
KRas G12D, sequence (P01116 1-169 isoform P01116-2 G12D): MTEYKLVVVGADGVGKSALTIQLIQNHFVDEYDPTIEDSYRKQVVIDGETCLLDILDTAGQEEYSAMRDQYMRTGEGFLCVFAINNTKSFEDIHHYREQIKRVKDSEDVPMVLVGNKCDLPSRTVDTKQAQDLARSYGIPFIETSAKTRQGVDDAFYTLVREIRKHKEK
KRas G12C, sequence (P01116 1-169 isoform P01116-2 G12C): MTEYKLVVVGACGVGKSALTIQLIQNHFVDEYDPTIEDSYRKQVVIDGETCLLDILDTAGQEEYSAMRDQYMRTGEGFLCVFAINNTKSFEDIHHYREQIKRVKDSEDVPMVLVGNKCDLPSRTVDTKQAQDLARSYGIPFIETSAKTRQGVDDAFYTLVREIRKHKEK
T2 sequence (P01116 1-169 isoform P01116-2 Q61H): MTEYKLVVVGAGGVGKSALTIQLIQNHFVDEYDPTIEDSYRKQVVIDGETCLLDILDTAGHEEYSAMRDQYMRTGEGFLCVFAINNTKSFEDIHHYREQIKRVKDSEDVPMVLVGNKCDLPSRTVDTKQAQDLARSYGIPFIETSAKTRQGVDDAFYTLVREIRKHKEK
KRas G12S, sequence (P01116 1-169 isoform P01116-2 G12S): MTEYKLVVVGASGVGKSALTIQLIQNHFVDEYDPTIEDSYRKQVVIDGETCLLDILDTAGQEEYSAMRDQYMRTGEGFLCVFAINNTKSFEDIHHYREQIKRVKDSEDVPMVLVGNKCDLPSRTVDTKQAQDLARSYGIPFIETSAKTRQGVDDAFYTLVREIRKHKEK
KRas WT, sequence (P01116 1-169 isoform P01116-2): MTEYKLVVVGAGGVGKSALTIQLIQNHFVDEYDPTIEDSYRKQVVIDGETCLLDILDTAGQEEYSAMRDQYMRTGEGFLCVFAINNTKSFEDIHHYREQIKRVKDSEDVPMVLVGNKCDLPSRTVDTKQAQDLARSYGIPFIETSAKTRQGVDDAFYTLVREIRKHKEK
KRas G12R, sequence (P01116 1-169 isoform P01116-2 G12R): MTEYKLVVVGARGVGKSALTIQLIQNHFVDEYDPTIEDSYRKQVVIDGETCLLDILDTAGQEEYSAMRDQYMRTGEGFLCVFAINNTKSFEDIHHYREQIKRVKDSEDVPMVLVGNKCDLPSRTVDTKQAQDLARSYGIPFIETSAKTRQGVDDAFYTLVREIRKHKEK

Compound	IC50 (KRas G12D) [µM]	IC50 (KRas G12C) [nM]	IC50 (KRas G12V) [nM]	IC50 (KRas G13D) [nM]	IC50 (KRas G12R) [nM]	IC50 (KRas WT) [nM]	IC50 (KRas Q61H) [nM]	IC50 (KRas G12S) [nM]	IC50 (KRas G12A) [nM]	IC50 (pERK in H727 cells) [nM]	IC50 (pERK in PSN1 cells) [µM]	IC50 (pERK in HCT116 cells) [nM]	IC50 (pERK in ASPC1 cells) [nM]	IC50 (pERK in MKN1 cells) [nM]
CCc1c(F)ccc2cc(O)cc(-c3ncc4c(N5CCCCC5)nc(OC[C@@H]5C[C@@H](O)CN5C)nc4c3F)c12 [Example 6]	0.029	18	19	21	14	22	23	20	16					
Fc1c(-c2cccc3cccc(F)c23)ncc2c(N3C[C@@H]4CC[C@@H](C4)C3)nc(OCC34CCCN3CCC4)nc12 [Example 18, 4-((1R,5S)-3-azabicyclo[3.2.1]octan-3-yl)-8-fluoro-7-(8-fluoronaphthalen-1-yl)-2-((hexahydro-1H-pyrrolizin-7a-yl)methoxy)pyrido[4,3-d]pyrimidine]	24	8790	4450	9370	6780	6810	13200	4980	7540					
O=C1CCC2(CCCN(c3nc(OCC45CCCN4CCC5)nc4c(F)c(-c5cccc6cccc(F)c56)ncc34)C2)C1 (stereo not shown) [Example 46, 7-(8-fluoro-7-(8-fluoronaphthalen-1-yl)-2-((hexahydro-1H-pyrrolizin-7a-yl)methoxy)pyrido[4,3-d]pyrimidin-4-yl)-7-azaspiro[4.5]decan-2-one]	14.1		24000	8790	22500		18500							
Fc1c(-c2cccc3cccc(F)c23)ncc2c(N3CCCC4(CCC(F)C4)C3)nc(OCC34CCCN3CCC4)nc12 (stereo not shown) [Example 48, 8-fluoro-4-(2-fluoro-7-azaspiro[4.5]decan-7-yl)-7-(8-fluoronaphthalen-1-yl)-2-((hexahydro-1H-pyrrolizin-7a-yl)methoxy)pyrido[4,3-d]pyrimidine]	18.4		20400	16000	24100		19900							
CCc1c(F)ccc2cc(O)cc(-c3ncc4c(NCc5c[nH]c6ncccc56)nc(OC[C@@]56CCCN5C[C@H](F)C6)nc4c3F)c12 [Example 62, 4-(4-(((1H-pyrrolo[2,3-b]pyridin-3-yl)methyl)amino)-8-fluoro-2-(((2R,7aS)-2-fluorohexahydro-1H-pyrrolizin-7a-yl)methoxy)pyrido[4,3-d]pyrimidin-7-yl)-5-ethyl-6-fluoronaphthalen-2-ol]	0.003		≤ 2	3	≤ 2		≤ 2							
CC1(O)COCCN(c2nc(OCC34CCCN3CCC4)nc3c(F)c(-c4cccc5cccc(F)c45)ncc23)C1 (stereo not shown) [Example 64, 4-(8-fluoro-7-(8-fluoronaphthalen-1-yl)-2-((hexahydro-1H-pyrrolizin-7a-yl)methoxy)pyrido[4,3-d]pyrimidin-4-yl)-6-methyl-1,4-oxazepan-6-ol]	0.568	1060	1360	1360	2550	997	1550	1150	1300					
CCc1c(F)ccc2cc(O)cc(-c3ncc4c(NCc5n[nH]cc5C)nc(OC[C@@]56CCCN5C[C@H](F)C6)nc4c3F)c12 [Example 161, 5-ethyl-6-fluoro-4-(8-fluoro-2-(((2R,7aS)-2-fluorohexahydro-1H-pyrrolizin-7a-yl)methoxy)-4-(((4-methyl-1H-pyrmzol-3-yl)methyl)amino)pyrido[4,3-d]pyrimidin-7-yl)naphthalen-2-ol]	0.068	7	7	16	9	20	17	15						
C#Cc1c(F)ccc2cc(O)cc(-c3ncc4c(N5CC6C(=O)NC(=O)C6C5)nc(OC[C@@]56CCCN5C[C@H](F)C6)nc4c3F)c12 (stereo partly drawn) [Example 389, 5-(7-(8-ethynyl-7-fluoro-3-hydroxynaphthalen-1-yl)-8-fluoro-2-(((2R,7aS)-2-fluorohexahydro-1H-pyrrolizin-7a-yl)methoxy)pyrido[4,3-d]pyrimidin-4-yl)tetrahydropyrrolo[3,4-c]pyrrole-1,3(2H,3aH)-dione]	≤ 0.002	≤ 2	≤ 2		3	≤ 2		≤ 2	≤ 2	970	≥ 10	1090	268	95

The next lines start with the values.

IC50 (KRas G12D) [µM]	IC50 (KRas G12C) [nM]	IC50 (KRas G12V) [nM]	IC50 (KRas G13D) [nM]	IC50 (KRas G12R) [nM]	IC50 (KRas WT) [nM]	IC50 (KRas Q61H) [nM]	IC50 (KRas G12S) [nM]	IC50 (KRas G12A) [nM]	IC50 (pERK in H727 cells) [nM]	IC50 (pERK in PSN1 cells) [µM]	IC50 (pERK in HCT116 cells) [nM]	IC50 (pERK in ASPC1 cells) [nM]	IC50 (pERK in MKN1 cells) [nM]	Compound
0.746	1190	1490	925	2230	956	1860	921	961						CC1(O)CCCN(c2nc(OCC34CCCN3CCC4)nc3c(F)c(-c4cccc5cccc(F)c45)ncc23)C1 (stereo not shown) [Example 17, 1-(8-fluoro-7-(8-fluoronaphthalen-1-yl)-2-((hexahydro-1H-pyrrolizin-7a-yl)methoxy)pyrido[4,3-d]pyrimidin-4-yl)-3-methylpiperidin-3-ol]
14.8	12700	9730	12600	10700	11400	19400	18800	12600						Fc1c(-c2cccc3cccc(F)c23)ncc2c(N3CCCCC3)nc(OCC34CCCN3CCC4)nc12 [Example 21, 8-fluoro-7-(8-fluoronaphthalen-1-yl)-2-((hexahydro-1H-pyrrolizin-7a-yl)methoxy)-4-(piperidin-1-yl)pyrido[4,3-d]pyrimidine]
20.5	4320	1960	8190	4380	5840	13900	3110	6200						O=C1CC(CNc2nc(OCC34CCCN3CCC4)nc3c(F)c(-c4cccc5cccc(F)c45)ncc23)CN1 (stereo not shown) [Example 29, 4-(((8-fluoro-7-(8-fluoronaphthalen-1-yl)-2-((hexahydro-1H-pyrrolizin-7a-yl)methoxy)pyrido[4,3-d]pyrimidin-4-yl)amino)methyl)pyrrolidin-2-one]
0.209	1290	800	2000	1270	1740	2900	1450	1760						Fc1c(-c2cccc3cccc(F)c23)ncc2c(N3CCCC(c4nc[nH]n4)C3)nc(OCC34CCCN3CCC4)nc12 (stereo not shown) [Example 30, 4-(3-(1H-1,2,4-triazol-3-yl)piperidin-1-yl)-8-fluoro-7-(8-fluoronaphthalen-1-yl)-2-((hexahydro-1H-pyrrolizin-7a-yl)methoxy)pyrido[4,3-d]pyrimidine]
12.1		2520	1660	1610		4010								CC1(CNc2nc(OCC34CCCN3CCC4)nc3c(F)c(-c4cccc5cccc(F)c45)ncc23)CNC(=O)C1 (stereo not shown) [Example 35, 4-(((8-fluoro-7-(8-fluoronaphthalen-1-yl)-2-((hexahydro-1H-pyrrolizin-7a-yl)methoxy)pyrido[4,3-d]pyrimidin-4-yl)amino)methyl)-4-methylpyrrolidin-2-one]
14.1	224	397	11700	215	2860	10800	418	403						Nc1ncccc1CNc1nc(OCC23CCCN2CCC3)nc2c(F)c(-c3cccc4cccc(F)c34)ncc12 [Example 70, N-((2-aminopyridin-3-yl)methyl)-8-fluoro-7-(8-fluoronaphthalen-1-yl)-2-((hexahydro-1H-pyrrolizin-7a-yl)methoxy)pyrido[4,3-d]pyrimidin-4-amine]
12.8	1640	1350	1210	2200	1410	1910	1170	1060						O=C1CC2(CCN(c3nc(OCC45CCCN4CCC5)nc4c(F)c(-c5cccc6cccc(F)c56)ncc34)CC2)N1 [Example 77, 7-(8-fluoro-7-(8-fluoronaphthalen-1-yl)-2-((hexahydro-1H-pyrrolizin-7a-yl)methoxy)pyrido[4,3-d]pyrimidin-4-yl)-1,7-diazaspiro[3.5]nonan-2-one]
